Laboratory results published in patent publication US20100087459A1, “FORMS OF LAPATINIB COMPOUNDS AND PROCESSES FOR THE PREPARATION THEREOF” (priority 2008, published 2010).

Experiment: stability of crystalline Form M1 in commonly used solvents and at high temperature
Format: physicochemical
Details: solvents used for production and especially for formulation of the pharmaceutical product

With Lapatinib monotosylate [Form M1] as the substance, how does the “stability in commonly used solvents” value read?
Its value is “high stability”.
